42 molecules from ChEMBL document CHEMBL2321862, “Development and evaluation of novel phosphotyrosine mimetic inhibitors targeting the Src homology 2 domain of signaling lymphocytic activation molecule (SLAM) associated protein” (J Med Chem, 2013) can be followed below.

Assay [1] has as its target T1, SH2 domain-containing protein 1A (Homo sapiens) (UniProt O60880).
T1 sequence (whole entry): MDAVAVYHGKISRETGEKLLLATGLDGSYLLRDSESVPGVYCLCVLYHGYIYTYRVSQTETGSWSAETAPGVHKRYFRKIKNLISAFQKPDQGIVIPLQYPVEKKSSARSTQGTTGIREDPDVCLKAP
Kind of assay: Inhibition of recombinant 6-His-tagged SLAM associated protein SH2 domain (unknown origin) expressed in Escherichia coli BL21(DE3) binding to biotinyl-KKSLTIpYAQVQK-NH2 attached to NeutrAvidin-coated plates using p-nitrophenyl phosphate as substrate at 100 uM after 1 hr.

Assay [2] deals with T1, SH2 domain-containing protein 1A (Homo sapiens). The assay is described as follows: Inhibition of recombinant 6-His-tagged SLAM associated protein SH2 domain (unknown origin) expressed in Escherichia coli BL21(DE3) binding to biotinyl-KKSLTIpYAQVQK-NH2 attached to NeutrAvidin-coated plates using p-nitrophenyl phosphate as substrate at 10 uM after 1 hr relative to control.

Calls of active or inactive are those of the source. No rule for the calls is given here.

Turning to `NC(=O)C[C@H](NC(=O)[C@H](Cc1ccc2c(c1)COP(=O)(O)O2)NC(=O)OCC1c2ccccc2-c2ccccc21)C(N)=O`, in assay [1], the inhibition result was “Active”. Moreover, in assay [2], the fold change (FC) was found to be 1.29.

Turning to `NC(=O)[C@@H]1CCCN1C(=O)[C@H](Cc1ccc2c(c1)COP(=O)(O)O2)NC(=O)OCC1c2ccccc2-c2ccccc21`, the inhibition entry in assay [1] was “Active”. Also, the fold change (FC) in assay [2] was determined as 1.05.

For the molecule `COC(=O)[C@H](Cc1ccc2c(c1)COP(=O)(O)O2)NC(=O)[C@H](CCC(=O)NC(c1ccccc1)(c1ccccc1)c1ccccc1)NC(=O)OCC1c2ccccc2-c2ccccc21`, the inhibition result in assay [1] is “Active”. In addition, the fold change (FC) in assay [2] came out at 1.11.

Consider `COC(=O)[C@H](Cc1ccc2c(c1)COP(=O)(O)O2)NC(=O)[C@H](CC(=O)NC(c1ccccc1)(c1ccccc1)c1ccccc1)NC(=O)OCC1c2ccccc2-c2ccccc21`, for which the inhibition result in assay [1] was “Active”. In assay [2], the fold change (FC) is 1.06.

With `COC(=O)[C@H](Cc1ccc2c(c1)COP(=O)(O)O2)NC(=O)[C@H](Cc1ccc2c(c1)COP(=O)(O)O2)NC(=O)OCC1c2ccccc2-c2ccccc21`, the inhibition entry in assay [1] is “Active”. For the same molecule, the fold change (FC) in assay [2] is 1.09.

For `COC(=O)[C@H](Cc1ccc2c(c1)COP(=O)(O)O2)NC(=O)[C@H](CO)NC(=O)OCC1c2ccccc2-c2ccccc21`, the inhibition entry in assay [1] was “Active”. In addition, the fold change (FC) in assay [2] was determined as 1.13.

Regarding `COC(=O)[C@H](Cc1ccc2c(c1)COP(=O)(O)O2)NC(=O)[C@H](CCSC)NC(=O)OCC1c2ccccc2-c2ccccc21`, the inhibition entry in assay [1] is “Active”. Further, the fold change (FC) in assay [2] turned out to be 0.85.

As to `COC(=O)[C@H](Cc1ccc2c(c1)COP(=O)(O)O2)NC(=O)[C@H](CCC(=O)OC(C)(C)C)NC(=O)OCC1c2ccccc2-c2ccccc21`, the inhibition result in assay [1] was “Active”. In addition, in assay [2], the fold change (FC) stood at 1.1.

Turning to `CC[C@H](C)[C@H](NC(=O)[C@H](Cc1ccc2c(c1)COP(=O)(O)O2)NC(=O)OCC1c2ccccc2-c2ccccc21)C(N)=O`, the inhibition entry in assay [1] was “Active”. The fold change (FC) in assay [2] was determined as 1.05.

Turning to `NC(=O)[C@H](CO)NC(=O)[C@H](Cc1ccc2c(c1)COP(=O)(O)O2)NC(=O)OCC1c2ccccc2-c2ccccc21`, the inhibition entry in assay [1] is “Active”. In addition, in assay [2], the fold change (FC) amounted to 0.9.

As for `COC(=O)[C@H](Cc1ccc2c(c1)COP(=O)(O)O2)NC(=O)[C@H](CC(N)=O)NC(=O)OCC1c2ccccc2-c2ccccc21`, the inhibition entry in assay [1] was “Active”. The fold change (FC) in assay [2] came out at 0.8.

As for `COC(=O)[C@H](Cc1ccc2c(c1)COP(=O)(O)O2)NC(=O)[C@H](CC(=O)O)NC(=O)OCC1c2ccccc2-c2ccccc21`, the inhibition result in assay [1] was “Active”. The fold change (FC) in assay [2] worked out at 0.84.

Regarding `COC(=O)[C@H](Cc1ccc2c(c1)COP(=O)(O)O2)NC(=O)[C@H](CCCNC(=N)N)NC(=O)OCC1c2ccccc2-c2ccccc21`, the inhibition result in assay [1] was “Active”. In addition, the fold change (FC) in assay [2] worked out at 0.91.

Take `COC(=O)[C@H](Cc1ccc2c(c1)COP(=O)(O)O2)NC(=O)[C@H](CC(C)C)NC(=O)OCC1c2ccccc2-c2ccccc21`: in assay [1], the inhibition entry was “Active”. Further, the fold change (FC) in assay [2] came out at 1.17.

As for `CC(C)(C)OC(=O)CC[C@H](NC(=O)[C@H](Cc1ccc2c(c1)COP(=O)(O)O2)NC(=O)OCC1c2ccccc2-c2ccccc21)C(N)=O`, in assay [1], the inhibition result is “Active”. Also, in assay [2], the fold change (FC) worked out at 1.47.

In the case of `COC(=O)[C@H](Cc1ccc2c(c1)COP(=O)(O)O2)NC(=O)[C@H](CCCCN)NC(=O)OCC1c2ccccc2-c2ccccc21`, in assay [1], the inhibition result was “Active”. Besides, in assay [2], the fold change (FC) was 1.05.

Take `COC(=O)[C@H](Cc1ccc2c(c1)COP(=O)(O)O2)NC(=O)[C@H](CC(=O)OC(C)(C)C)NC(=O)OCC1c2ccccc2-c2ccccc21`: the inhibition entry in assay [1] is “Active”. The fold change (FC) in assay [2] was determined as 0.9.

Regarding `CC(C)(C)OC(=O)n1cc(C[C@H](NC(=O)[C@H](Cc2ccc3c(c2)COP(=O)(O)O3)NC(=O)OCC2c3ccccc3-c3ccccc32)C(N)=O)c2ccccc21`, the inhibition entry in assay [1] was “Active”. The fold change (FC) in assay [2] was determined as 1.33.

Take `CC[C@H](C)[C@H](NC(=O)OCC1c2ccccc2-c2ccccc21)C(=O)N[C@@H](Cc1ccc2c(c1)COP(=O)(O)O2)C(=O)OC`: the inhibition entry in assay [1] is “Active”. Besides, in assay [2], the fold change (FC) was found to be 1.51.

Regarding `CSCC[C@H](NC(=O)[C@H](Cc1ccc2c(c1)COP(=O)(O)O2)NC(=O)OCC1c2ccccc2-c2ccccc21)C(N)=O`, the inhibition result in assay [1] is “Active”. In assay [2], the fold change (FC) is 0.91.

Take `COC(=O)[C@H](Cc1ccc2c(c1)COP(=O)(O)O2)NC(=O)[C@@H](NC(=O)OCC1c2ccccc2-c2ccccc21)[C@@H](C)OC(C)(C)C`: the inhibition result in assay [1] is “Active”. Further, the fold change (FC) in assay [2] was found to be 0.85.

With `N=C(N)NCCC[C@H](NC(=O)[C@H](Cc1ccc2c(c1)COP(=O)(O)O2)NC(=O)OCC1c2ccccc2-c2ccccc21)C(N)=O`, the inhibition result in assay [1] is “Active”. Moreover, the fold change (FC) in assay [2] came out at 0.94.

Consider `CC(C)(C)OC[C@H](NC(=O)[C@H](Cc1ccc2c(c1)COP(=O)(O)O2)NC(=O)OCC1c2ccccc2-c2ccccc21)C(N)=O`, for which, in assay [1], the inhibition entry was “Active”. For the same molecule, the fold change (FC) in assay [2] was found to be 1.27.

`COC(=O)[C@H](Cc1ccc2c(c1)COP(=O)(O)O2)NC(=O)[C@H](CCC(=O)O)NC(=O)OCC1c2ccccc2-c2ccccc21`: the inhibition entry in assay [1] was “Active”. Moreover, in assay [2], the fold change (FC) was 0.95.

For `NC(=O)[C@H](Cc1c[nH]c2ccccc12)NC(=O)[C@H](Cc1ccc2c(c1)COP(=O)(O)O2)NC(=O)OCC1c2ccccc2-c2ccccc21`, the inhibition entry in assay [1] is “Active”. The fold change (FC) in assay [2] amounted to 1.36.

For `C[C@H](NC(=O)[C@H](Cc1ccc2c(c1)COP(=O)(O)O2)NC(=O)OCC1c2ccccc2-c2ccccc21)C(N)=O`, the inhibition entry in assay [1] is “Active”. Further, the fold change (FC) in assay [2] was determined as 1.09.

Turning to `COC(=O)[C@H](Cc1ccc2c(c1)COP(=O)(O)O2)NC(=O)[C@H](Cc1c[nH]c2ccccc12)NC(=O)OCC1c2ccccc2-c2ccccc21`, the inhibition entry in assay [1] is “Active”. Besides, in assay [2], the fold change (FC) is 0.94.

Take `COC(=O)[C@H](Cc1ccc2c(c1)COP(=O)(O)O2)NC(=O)[C@H](Cc1cn(C(c2ccccc2)(c2ccccc2)c2ccccc2)cn1)NC(=O)OCC1c2ccccc2-c2ccccc21`: the inhibition result in assay [1] was “Active”. Moreover, the fold change (FC) in assay [2] worked out at 1.06.

On to `COC(=O)[C@H](Cc1ccc2c(c1)COP(=O)(O)O2)NC(=O)[C@@H]1CCCN1C(=O)OCC1c2ccccc2-c2ccccc21`, for which the inhibition result in assay [1] is “Active”. Besides, the fold change (FC) in assay [2] is 0.81.

In the case of `COC(=O)[C@H](Cc1ccc2c(c1)COP(=O)(O)O2)NC(=O)[C@H](Cc1cn(C(=O)OC(C)(C)C)c2ccccc12)NC(=O)OCC1c2ccccc2-c2ccccc21`, the inhibition result in assay [1] was “Active”. Further, the fold change (FC) in assay [2] worked out at 1.2.

With `COC(=O)[C@H](Cc1ccc2c(c1)COP(=O)(O)O2)NC(=O)[C@@H](NC(=O)OCC1c2ccccc2-c2ccccc21)[C@@H](C)O`, the inhibition entry in assay [1] is “Active”. Moreover, in assay [2], the fold change (FC) was found to be 0.82.

Turning to `CC(C)(C)OC(=O)C[C@H](NC(=O)[C@H](Cc1ccc2c(c1)COP(=O)(O)O2)NC(=O)OCC1c2ccccc2-c2ccccc21)C(N)=O`, the inhibition result in assay [1] is “Active”. The fold change (FC) in assay [2] was determined as 1.24.

Turning to `NC(=O)CC[C@H](NC(=O)[C@H](Cc1ccc2c(c1)COP(=O)(O)O2)NC(=O)OCC1c2ccccc2-c2ccccc21)C(N)=O`, in assay [1], the inhibition result is “Active”. Moreover, the fold change (FC) in assay [2] was 0.99.

Take `COC(=O)[C@H](Cc1ccc2c(c1)COP(=O)(O)O2)NC(=O)[C@H](Cc1ccc(OC(C)(C)C)cc1)NC(=O)OCC1c2ccccc2-c2ccccc21`: the inhibition entry in assay [1] is “Active”. In addition, the fold change (FC) in assay [2] amounted to 0.96.

On to `COC(=O)[C@H](Cc1ccc2c(c1)COP(=O)(O)O2)NC(=O)[C@H](CCCCNC(=O)OC(C)(C)C)NC(=O)OCC1c2ccccc2-c2ccccc21`, for which the inhibition entry in assay [1] was “Active”. The fold change (FC) in assay [2] was 0.85.

For the molecule `COC(=O)[C@H](Cc1ccc2c(c1)COP(=O)(O)O2)NC(=O)CNC(=O)OCC1c2ccccc2-c2ccccc21`, the inhibition result in assay [1] was “Active”. Also, in assay [2], the fold change (FC) was 0.77.

Consider `COC(=O)[C@H](Cc1ccc2c(c1)COP(=O)(O)O2)NC(=O)[C@H](Cc1ccccc1)NC(=O)OCC1c2ccccc2-c2ccccc21`, for which, in assay [1], the inhibition entry is “Active”. Also, the fold change (FC) in assay [2] was 0.84.

On to `NC(=O)[C@H](CCC(=O)NC(c1ccccc1)(c1ccccc1)c1ccccc1)NC(=O)[C@H](Cc1ccc2c(c1)COP(=O)(O)O2)NC(=O)OCC1c2ccccc2-c2ccccc21`, for which the inhibition entry in assay [1] was “Active”. In assay [2], the fold change (FC) is 1.07.

On to `COC(=O)[C@H](Cc1ccc2c(c1)COP(=O)(O)O2)NC(=O)[C@H](Cc1ccc(O)cc1)NC(=O)OCC1c2ccccc2-c2ccccc21`, for which, in assay [1], the inhibition result is “Active”. Also, in assay [2], the fold change (FC) came out at 1.05.

Consider `Cc1c(C)c(S(=O)(=O)NC(=N)NCCC[C@H](NC(=O)[C@H](Cc2ccc3c(c2)COP(=O)(O)O3)NC(=O)OCC2c3ccccc3-c3ccccc32)C(N)=O)c(C)c2c1OC(C)(C)C2`, for which, in assay [1], the inhibition result was “Active”. Further, the fold change (FC) in assay [2] was found to be 0.94.

Consider `CC(C)(C)Oc1ccc(C[C@H](NC(=O)[C@H](Cc2ccc3c(c2)COP(=O)(O)O3)NC(=O)OCC2c3ccccc3-c3ccccc32)C(N)=O)cc1`, for which the inhibition entry in assay [1] is “Active”. For the same molecule, the fold change (FC) in assay [2] amounted to 1.24.

Turning to `NC(=O)[C@H](CCC(=O)O)NC(=O)[C@H](Cc1ccc2c(c1)COP(=O)(O)O2)NC(=O)OCC1c2ccccc2-c2ccccc21`, the inhibition entry in assay [1] was “Active”. For the same molecule, in assay [2], the fold change (FC) was found to be 1.31.
